Assay results published in ChEMBL document CHEMBL2417434, “The first synthesis of natural disulfide bruguiesulfurol and biological evaluation of its derivatives as a novel scaffold for PTP1B inhibitors” (Bioorg Med Chem Lett, 2013).

Columns and labels:
[1] = molecular target: T1, Tyrosine-protein phosphatase non-receptor type 1 (Homo sapiens, UniProt P18031); assay: Inhibition of PTP1B (unknown origin)
T1 sequence (P18031 whole entry): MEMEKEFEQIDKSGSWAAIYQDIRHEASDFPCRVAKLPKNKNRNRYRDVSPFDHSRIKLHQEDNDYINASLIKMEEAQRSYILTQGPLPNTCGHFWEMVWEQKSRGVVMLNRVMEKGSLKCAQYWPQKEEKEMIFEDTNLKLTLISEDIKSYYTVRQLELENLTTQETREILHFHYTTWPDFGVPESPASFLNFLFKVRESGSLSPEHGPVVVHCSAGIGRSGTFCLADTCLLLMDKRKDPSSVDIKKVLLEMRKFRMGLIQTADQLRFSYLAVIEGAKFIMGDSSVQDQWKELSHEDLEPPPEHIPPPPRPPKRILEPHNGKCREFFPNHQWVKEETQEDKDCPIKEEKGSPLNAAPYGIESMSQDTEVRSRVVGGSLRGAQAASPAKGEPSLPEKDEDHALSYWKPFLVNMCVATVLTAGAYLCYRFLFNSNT

[2] = molecular target: Receptor-type tyrosine-protein phosphatase F (Homo sapiens, UniProt P10586); assay: Inhibition of LAR (unknown origin)
[3] = molecular target: Tyrosine-protein phosphatase non-receptor type 6 (Homo sapiens, UniProt P29350); assay: Inhibition of SHP1 (unknown origin)
[4] = molecular target: T2, Tyrosine-protein phosphatase non-receptor type 2 (Homo sapiens, UniProt P17706); assay: Inhibition of TCPTP (unknown origin)
T2 sequence (P17706 whole entry): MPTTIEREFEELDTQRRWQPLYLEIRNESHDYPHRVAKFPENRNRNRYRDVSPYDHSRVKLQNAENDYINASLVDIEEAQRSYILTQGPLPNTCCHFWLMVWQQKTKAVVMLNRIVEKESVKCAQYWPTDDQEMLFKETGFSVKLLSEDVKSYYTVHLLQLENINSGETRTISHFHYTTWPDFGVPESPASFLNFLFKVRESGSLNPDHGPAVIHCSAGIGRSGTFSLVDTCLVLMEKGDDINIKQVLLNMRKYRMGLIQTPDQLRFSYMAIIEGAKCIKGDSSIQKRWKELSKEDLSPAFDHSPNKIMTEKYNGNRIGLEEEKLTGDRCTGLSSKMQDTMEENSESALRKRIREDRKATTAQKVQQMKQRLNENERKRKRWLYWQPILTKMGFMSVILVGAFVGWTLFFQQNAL

[5] = molecular target: T3, Tyrosine-protein phosphatase non-receptor type 11 (Homo sapiens, UniProt Q06124); assay: Inhibition of SHP2 (unknown origin)
T3 sequence (Q06124 whole entry): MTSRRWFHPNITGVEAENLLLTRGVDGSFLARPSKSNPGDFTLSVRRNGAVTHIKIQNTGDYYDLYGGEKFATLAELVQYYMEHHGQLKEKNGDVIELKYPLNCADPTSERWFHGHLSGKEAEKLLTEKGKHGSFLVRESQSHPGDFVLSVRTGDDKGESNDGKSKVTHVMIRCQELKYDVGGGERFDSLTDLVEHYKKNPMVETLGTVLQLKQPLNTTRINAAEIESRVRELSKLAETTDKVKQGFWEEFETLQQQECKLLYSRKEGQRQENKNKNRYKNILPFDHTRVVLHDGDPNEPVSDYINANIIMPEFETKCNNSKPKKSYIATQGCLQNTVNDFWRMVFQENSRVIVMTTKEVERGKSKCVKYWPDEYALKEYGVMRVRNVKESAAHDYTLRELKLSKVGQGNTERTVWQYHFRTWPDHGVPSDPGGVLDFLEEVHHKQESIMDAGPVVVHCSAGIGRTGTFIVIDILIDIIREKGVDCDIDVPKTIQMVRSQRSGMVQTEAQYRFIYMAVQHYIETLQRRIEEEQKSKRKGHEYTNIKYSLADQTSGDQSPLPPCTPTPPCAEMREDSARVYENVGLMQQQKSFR

Chain of Receptor-type tyrosine-protein phosphatase F (P10586 whole entry): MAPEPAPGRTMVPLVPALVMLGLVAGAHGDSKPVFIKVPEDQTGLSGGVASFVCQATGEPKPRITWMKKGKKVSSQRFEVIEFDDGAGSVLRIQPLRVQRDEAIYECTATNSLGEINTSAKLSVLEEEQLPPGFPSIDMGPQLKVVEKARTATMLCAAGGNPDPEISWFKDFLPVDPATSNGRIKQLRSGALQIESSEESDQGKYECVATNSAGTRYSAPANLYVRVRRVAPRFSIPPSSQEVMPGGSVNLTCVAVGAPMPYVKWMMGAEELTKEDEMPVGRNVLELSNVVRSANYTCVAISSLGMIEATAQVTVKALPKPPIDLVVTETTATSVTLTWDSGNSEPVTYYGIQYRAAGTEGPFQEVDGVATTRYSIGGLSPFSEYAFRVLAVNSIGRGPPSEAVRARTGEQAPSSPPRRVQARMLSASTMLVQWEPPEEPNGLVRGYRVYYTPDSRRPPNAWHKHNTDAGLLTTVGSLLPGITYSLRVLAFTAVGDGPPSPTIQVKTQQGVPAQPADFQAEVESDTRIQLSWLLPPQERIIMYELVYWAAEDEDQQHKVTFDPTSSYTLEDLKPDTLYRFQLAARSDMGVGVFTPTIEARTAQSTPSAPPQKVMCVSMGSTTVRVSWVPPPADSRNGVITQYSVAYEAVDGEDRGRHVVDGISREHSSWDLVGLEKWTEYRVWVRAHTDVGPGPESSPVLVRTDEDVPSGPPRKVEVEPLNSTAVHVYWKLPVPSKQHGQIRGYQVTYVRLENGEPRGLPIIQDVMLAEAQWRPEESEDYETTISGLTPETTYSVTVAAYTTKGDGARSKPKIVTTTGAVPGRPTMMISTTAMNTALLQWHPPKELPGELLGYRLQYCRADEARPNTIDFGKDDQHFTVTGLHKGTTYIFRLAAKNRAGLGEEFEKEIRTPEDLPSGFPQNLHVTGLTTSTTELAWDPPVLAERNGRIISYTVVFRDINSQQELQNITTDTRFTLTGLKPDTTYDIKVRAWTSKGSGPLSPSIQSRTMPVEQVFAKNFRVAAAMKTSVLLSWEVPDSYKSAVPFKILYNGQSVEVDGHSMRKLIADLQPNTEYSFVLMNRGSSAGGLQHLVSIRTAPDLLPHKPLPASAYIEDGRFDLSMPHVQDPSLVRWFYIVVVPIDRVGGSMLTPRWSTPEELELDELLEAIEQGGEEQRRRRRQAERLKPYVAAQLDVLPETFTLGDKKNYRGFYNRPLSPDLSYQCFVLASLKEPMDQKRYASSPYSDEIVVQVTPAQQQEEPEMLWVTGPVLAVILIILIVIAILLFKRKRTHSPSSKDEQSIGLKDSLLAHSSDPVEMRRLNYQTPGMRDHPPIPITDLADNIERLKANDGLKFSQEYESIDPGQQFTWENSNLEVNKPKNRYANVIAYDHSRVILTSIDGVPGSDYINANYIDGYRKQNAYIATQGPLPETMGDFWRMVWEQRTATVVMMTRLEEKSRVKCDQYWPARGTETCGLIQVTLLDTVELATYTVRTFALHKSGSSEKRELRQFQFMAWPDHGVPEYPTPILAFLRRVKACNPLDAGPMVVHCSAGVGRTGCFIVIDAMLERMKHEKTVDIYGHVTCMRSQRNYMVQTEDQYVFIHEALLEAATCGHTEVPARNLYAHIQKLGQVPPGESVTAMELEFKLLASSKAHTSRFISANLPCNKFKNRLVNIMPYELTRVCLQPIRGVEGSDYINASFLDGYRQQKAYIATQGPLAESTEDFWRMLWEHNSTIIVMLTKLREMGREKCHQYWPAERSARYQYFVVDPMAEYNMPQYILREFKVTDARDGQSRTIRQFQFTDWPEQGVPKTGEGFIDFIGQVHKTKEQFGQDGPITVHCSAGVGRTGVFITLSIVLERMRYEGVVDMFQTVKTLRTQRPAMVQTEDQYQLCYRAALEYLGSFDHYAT
Chain of Tyrosine-protein phosphatase non-receptor type 6 (P29350 whole entry): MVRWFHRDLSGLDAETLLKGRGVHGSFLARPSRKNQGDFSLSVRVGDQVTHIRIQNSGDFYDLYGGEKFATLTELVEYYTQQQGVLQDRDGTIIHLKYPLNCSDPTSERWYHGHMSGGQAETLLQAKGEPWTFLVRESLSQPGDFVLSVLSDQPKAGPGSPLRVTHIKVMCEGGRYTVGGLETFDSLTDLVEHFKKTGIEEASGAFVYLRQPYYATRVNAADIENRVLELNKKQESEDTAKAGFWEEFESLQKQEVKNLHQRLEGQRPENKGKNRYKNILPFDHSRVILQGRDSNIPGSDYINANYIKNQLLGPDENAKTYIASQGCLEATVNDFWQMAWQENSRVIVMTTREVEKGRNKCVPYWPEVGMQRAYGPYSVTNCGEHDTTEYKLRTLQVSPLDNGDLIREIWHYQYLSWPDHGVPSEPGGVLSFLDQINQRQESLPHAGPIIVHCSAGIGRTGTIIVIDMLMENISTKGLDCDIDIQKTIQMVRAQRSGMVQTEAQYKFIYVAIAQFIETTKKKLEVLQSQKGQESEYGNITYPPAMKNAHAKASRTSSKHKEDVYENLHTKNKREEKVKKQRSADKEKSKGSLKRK

IC50 [1]	IC50 [2]	IC50 [3]	IC50 [5]	IC50 ([1]; read-out: IC50)	IC50 ([4]; read-out: IC50)	SMILES	other results
Not Active						O=C(OC1CSS(=O)(=O)C1)c1cc(Br)ccc1Br (configuration not stated)	
Not Active						O=C(OC1CS[S+]([O-])C1)c1ccc(Br)cc1 (configuration not stated)	
Not Active						O=C(OC1CS[S+]([O-])C1)c1ccccc1Br (configuration not stated)	
	Not Active	Not Active	Not Active	28 µM		O=C(OC1CS[S+]([O-])C1)c1cccc(Br)c1 (configuration not stated)	IC50 [4]: Not Active
Not Active						O=C(OC1CS[S+]([O-])C1)c1ccc(F)cc1 (configuration not stated)	
	Not Active	Not Active	Not Active	29.7 µM	36.8 µM	O=C(OC1CS[S+]([O-])C1)c1ccccc1I (configuration not stated)	
	Not Active	Not Active	Not Active	4.54 µM	11.1 µM	O=C(OC1CS[S+]([O-])C1)c1cc(Br)ccc1Br (configuration not stated)	
	Not Active	Not Active	Not Active	45 µM		O=C(Cc1ccc(Br)cc1)OC1CS[S+]([O-])C1 (configuration not stated)	IC50 [4]: Not Active
		Not Active	Not Active	48.2 µM	42.1 µM	O=C(OC1CSSC1)c1ccccc1I	IC50 ([2]; read-out: IC50): 20.4 µM
	Not Active		Not Active	25.6 µM	20.4 µM	O=C(OC1CSSC1)c1cc(Br)ccc1Br	IC50 ([3]; read-out: IC50): 10.9 µM
Not Active						O=C(OC1CSSC1)c1ccccc1	
Not Active						O=C(OC1CSS(=O)(=O)C1)c1ccccc1Br (configuration not stated)	
Not Active						O=C(OC1CSS(=O)(=O)C1)c1ccccc1I (configuration not stated)	
Not Active						O=C(OC1CSSC1)c1ccccc1Br	
Not Active						O=C(OC1CSSC1)c1cccc(Br)c1	

Further lines, the compound ahead of its results:

SMILES	IC50 [1]	IC50 [2]	IC50 [3]	IC50 [5]	IC50 ([1]; read-out: IC50)	IC50 ([4]; read-out: IC50)	other results
O=C(OC1CSS(=O)(=O)C1)c1cc2ccccc2[nH]1 (configuration not stated)	Not Active						
O=C(Cc1ccc(Br)cc1)OC1CSS(=O)(=O)C1 (configuration not stated)	Not Active						
O=C(OC1CS[S+]([O-])C1)c1ccc(I)cc1 (configuration not stated)		Not Active	Not Active	Not Active	22.4 µM	33 µM	
O=C(OC1CS[S+]([O-])C1)c1cc2ccccc2[nH]1 (configuration not stated)		Not Active	Not Active	Not Active	31.4 µM	52.6 µM	
O=C(OC1CSSC1)c1ccc(Cl)cc1	Not Active						
O=C(OC1CSSC1)c1ccc(I)cc1		Not Active	Not Active	Not Active	33.4 µM	34.1 µM	
NS(=O)(=O)c1ccc(C(=O)OC2CSSC2)cc1		Not Active			24.9 µM	40.7 µM	IC50 ([3]; read-out: IC50): 14 µM; IC50 ([5]; read-out: IC50): 13.4 µM
O=C(OC1CSSC1)c1ccc([N+](=O)[O-])cc1		Not Active	Not Active	Not Active	22.6 µM	37.4 µM	
O=C(Cc1ccc(Br)cc1)OC1CSSC1	Not Active						
O=C(CCc1ccc(Br)cc1)OC1CSSC1	Not Active						
O=C(OC1CSSC1)c1cc([N+](=O)[O-])cc([N+](=O)[O-])c1		Not Active			14.8 µM	27.3 µM	IC50 ([3]; read-out: IC50): 24.4 µM; IC50 ([5]; read-out: IC50): 13.8 µM
COc1ccc(C(=O)OC2CSSC2)c(OC)c1	Not Active						
CC(=O)OC1CSSC1	Not Active						
O=C(OC1CSSC1)c1ccoc1		Not Active			78.2 µM		IC50 ([3]; read-out: IC50): 17.9 µM; IC50 [4]: Not Active; IC50 ([5]; read-out: IC50): 21.4 µM
O=C(OC1CSSC1)c1ccco1		Not Active			35.2 µM	75.4 µM	IC50 ([3]; read-out: IC50): 15.8 µM; IC50 ([5]; read-out: IC50): 22.3 µM
O=C(OC1CSSC1)c1ccc[nH]1	Not Active						
O=C(OC1CSSC1)c1cc2ccccc2[nH]1		Not Active	Not Active	Not Active	24.1 µM	35.8 µM	
O=C(OC1CSS(=O)(=O)C1)c1ccc(Br)cc1 (configuration not stated)	Not Active						
O=C(OC1CSS(=O)(=O)C1)c1cccc(Br)c1 (configuration not stated)		Not Active	Not Active	Not Active	29 µM		IC50 [4]: Not Active
O=C(OC1CSS(=O)(=O)C1)c1ccc(F)cc1 (configuration not stated)	Not Active						
O=C(OC1CSS(=O)(=O)C1)c1ccc(I)cc1 (configuration not stated)	Not Active						
O=C(OC1CSSC1)c1ccc(Br)cc1			Not Active	Not Active	11 µM	34 µM	IC50 ([2]; read-out: IC50): 34.6 µM
O=C(OC1CSSC1)c1ccc(F)cc1	Not Active						
O=S1(=O)C[C@H](O)CS1 [BRUGUIESULFUROL]					17.5 µM		
